Measured values reported in patent publication US20230339851A1, “CXCR6 SULFONAMIDE COMPOUNDS” (CHEMOCENTRYX, INC., priority 2022, published 2023).

Each molecule was assayed against T1, human CXCR6 (Homo sapiens, UniProt O00574) (assay: Radioligand Binding Assay (125I-CXCL16 displacement)). Settings: L1.2 cells stably transfected with human CXCR6 cDNA, 0.1 nM 125I-CXCL16, 4° C., three-hour incubation; read-out: Potency (IC50).
T1 construct: expressed in transfected cells
Method in brief: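 L1.2 cells stably expressing human CXCR6 incubated 3 h at 4 °C in HBSS/0.1% BSA with 0.1 nM 125I-CXCL16 and graded compound concentrations. Bound radioactivity collected by filtration and counted; IC50 from 3-parameter nonlinear regression.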

T1 sequence (O00574 whole entry): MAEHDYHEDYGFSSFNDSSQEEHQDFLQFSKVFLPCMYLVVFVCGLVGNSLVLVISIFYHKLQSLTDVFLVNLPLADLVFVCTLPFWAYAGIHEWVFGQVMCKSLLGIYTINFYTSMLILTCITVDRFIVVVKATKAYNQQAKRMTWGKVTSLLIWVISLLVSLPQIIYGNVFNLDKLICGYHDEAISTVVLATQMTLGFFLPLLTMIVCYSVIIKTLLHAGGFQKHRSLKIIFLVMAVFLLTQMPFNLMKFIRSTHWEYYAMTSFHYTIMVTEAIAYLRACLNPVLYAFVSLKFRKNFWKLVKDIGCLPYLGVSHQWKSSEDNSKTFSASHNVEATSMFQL

SMILES | IC50 [nM]
Cc1cc(NC(=O)[C@H]2CCOC[C@H]2C)ccc1S(=O)(=O)Nc1cccc(C(F)(F)F)c1 (racemic) [Example 1.483] | 200 to 750
CCOc1cc(NC(=O)C(O)c2cccc(C(F)(F)F)c2)ccc1S(=O)(=O)Nc1cccc(OC(F)(F)F)c1 (stereo not shown) [Example 1.327] | ≤ 200
CCOc1cc(NC(=O)C(CCO)C(F)(F)F)ccc1S(=O)(=O)Nc1cccc(OC(F)(F)F)c1 (stereo not shown) [Example 1.335] | ≤ 200
CCOc1cc(NC(=O)C2CCN(C(=O)OC(C)(C)C)CC2)ccc1S(=O)(=O)Nc1cccc(OC(F)(F)F)c1 [Example 1.433] | 2000 to 20000
CCOc1cc(NC(=O)C(C)C(O)C2CCCOC2)ccc1S(=O)(=O)Nc1cccc(OC(F)(F)F)c1 (stereo not shown) [Example 1.435] | 200 to 750
CCOc1cc(NC(=O)C2CCC(=O)C2)ccc1S(=O)(=O)Nc1cccc(OC(F)(F)F)c1 (stereo not shown) [Example 1.152] | 200 to 750
CCn1nccc1C(=O)Nc1ccc(S(=O)(=O)Nc2cccc(C(F)(F)F)c2)c(C)c1 [Example 1.519] | 200 to 750
CCOc1cc(NC(=O)[C@H]2CCCC[C@H]2OC)ccc1S(=O)(=O)Nc1cccc(OC(F)(F)F)c1 [Example 1.449] | 2000 to 20000
CCOc1cc(NC(=O)[C@@H](O)c2ccccc2Cl)ccc1S(=O)(=O)Nc1cccc(OC(F)(F)F)c1 [Example 1.276] | ≤ 200
COc1cc(NC(=O)C2CC3C=CC2C3)ccc1S(=O)(=O)Nc1cccc(C(F)(F)F)c1 (stereo not shown) [Example 1.077] | 2000 to 20000
Cc1cc(NC(=O)[C@@H]2CCCN2)ccc1S(=O)(=O)Nc1cccc(C(F)(F)F)c1 [Example 1.328] | 750 to 2000
COc1cc(NC(=O)c2ccnn2C)ccc1S(=O)(=O)Nc1cccc(OC(F)F)c1 [Example 1.041] | 200 to 750
C=CC(=O)Nc1ccc(S(=O)(=O)Nc2cccc(OC(F)(F)F)c2)c(OCC)c1 [Example 1.583] | 200 to 750
CCOc1cc(NC(=O)[C@@H]2C[C@@H](O)[C@@H](O)C2)ccc1S(=O)(=O)Nc1cccc(OC(F)(F)F)c1 [Example 1.280] | 2000 to 20000
CCOc1cc(NC(=O)C(C(=O)O)C2CCOCC2)ccc1S(=O)(=O)Nc1cccc(OC(F)(F)F)c1 (stereo not shown) [Example 1.377] | ≤ 200
CC(=O)Nc1ccc(S(=O)(=O)Nc2cccc(C(F)(F)F)c2)c(F)c1 [Example 1.385] | 2000 to 20000
CCOc1cc(NC(=O)C2CCN(C)CC2)ccc1S(=O)(=O)Nc1cccc(OC(F)(F)F)c1 [Example 1.192] | 2000 to 20000
CCOc1cc(NC(=O)C2CC=CCC2)ccc1S(=O)(=O)Nc1cccc(OC(F)(F)F)c1 (stereo not shown) [Example 1.480] | 200 to 750
Cc1cc(NC(=O)C2CCOC2)ccc1S(=O)(=O)Nc1cccc(C(F)(F)F)c1 (stereo not shown) [Example 1.249] | 2000 to 20000
Cc1cc(NC(=O)C2CCCOC2)ccc1S(=O)(=O)Nc1cccc(C(F)(F)F)c1 (stereo not shown) [Example 1.478] | 750 to 2000
CCOc1cc(NC(=O)[C@@H](CO)c2ccccc2)ccc1S(=O)(=O)Nc1cccc(C(F)(F)F)c1 [Example 1.437] | ≤ 200
COc1cc(NC(=O)C2CC3C=CC2C3)ccc1S(=O)(=O)Nc1cccc(C(F)(F)F)c1 (stereo not shown) [Example 1.379] | 200 to 750
CCOc1cc(NC(=O)C(CO)CC2CC=CCC2)ccc1S(=O)(=O)Nc1cccc(OC(F)(F)F)c1 (stereo not shown) [Example 1.428] | ≤ 200
COc1cc(NC(=O)CC2CCOC2)ccc1S(=O)(=O)Nc1cccc(C(F)(F)F)c1 (stereo not shown) [Example 1.526] | 2000 to 20000

SMILES | IC50 [nM]
CCOc1cc(NC(=O)[C@H]2CCOC[C@H]2CC)ccc1S(=O)(=O)Nc1cccc(OC(F)(F)F)c1 (racemic) [Example 1.233] | ≤ 200
CCOc1cc(NC(=O)[C@@H](O)C(C)C)ccc1S(=O)(=O)Nc1cccc(C(C)(C)C)c1 [Example 1.277] | 200 to 750
CCOc1cc(NC(=O)C2CCC(O)CC2)ccc1S(=O)(=O)Nc1cccc(OC(F)(F)F)c1 (stereo not shown) [Example 1.285] | 2000 to 20000
Cc1cc(NC(=O)c2cccnc2)ccc1S(=O)(=O)Nc1cccc(C(F)(F)F)c1 [Example 1.330] | 200 to 750
Cc1cc(NC(=O)[C@@H]2CCCN2C)ccc1S(=O)(=O)Nc1cccc(C(F)(F)F)c1 [Example 1.422] | 2000 to 20000
COc1cc(NC(=O)[C@@H]2CCC[C@@H](OC)C2)ccc1S(=O)(=O)Nc1cccc(C(F)(F)F)c1 [Example 1.554] | 2000 to 20000
CCOc1cc(NC(=O)C2CCOCC2(C)C)ccc1S(=O)(=O)Nc1cccc(OC(F)(F)F)c1 (stereo not shown) [Example 1.215] | 200 to 750
CCOc1cc(NC(=O)C(O)C2C=CCC2)ccc1S(=O)(=O)Nc1cccc(OC(F)(F)F)c1 (stereo not shown) [Example 1.031] | ≤ 200
CCOc1cc(NC(=O)c2ccc(=O)n(C)c2)ccc1S(=O)(=O)Nc1cccc(OC(F)(F)F)c1 [Example 1.515] | 750 to 2000
Cc1cc(NC(=O)c2cccc(C(F)(F)F)c2)ccc1S(=O)(=O)Nc1cccc(C(F)(F)F)c1 [Example 1.443] | 2000 to 20000
C[C@@H]1COCC[C@@H]1C(=O)Nc1ccc(S(=O)(=O)Nc2cccc(OC(F)(F)F)c2)c(C#N)c1 (racemic) [Example 1.341] | 2000 to 20000
CCOc1cc(NC(=O)c2ccns2)ccc1S(=O)(=O)Nc1cccc(C(F)(F)F)c1 [Example 1.567] | ≤ 200
COc1cc(NC(=O)[C@H]2CCOC[C@H]2C)ccc1S(=O)(=O)Nc1cccc(C(F)(F)F)c1 (racemic) [Example 1.219] | 200 to 750
CCOc1cc(NC(=O)C(CO)C2CCCC2)ccc1S(=O)(=O)Nc1cccc(OC(F)(F)F)c1 (stereo not shown) [Example 1.455] | ≤ 200
CCOc1cc(NC(=O)[C@@H](CO)c2ccccc2)ccc1S(=O)(=O)Nc1cccc(C2CC2)c1 [Example 1.080] | ≤ 200
CC(=O)Nc1cc(C)c(S(=O)(=O)Nc2cccc(OC(F)(F)F)c2)c(F)c1 [Example 1.444] | 2000 to 20000
CCOc1cc(NC(=O)c2ccc(N)nc2)ccc1S(=O)(=O)Nc1cccc(OC(F)(F)F)c1 [Example 1.326] | ≤ 200
COc1cc(NC(=O)[C@@H]2CCCNC2)ccc1S(=O)(=O)Nc1cccc(C(F)(F)F)c1 [Example 1.471] | 2000 to 20000
CCOc1cc(NC(=O)C(O)c2ccc(F)cc2)ccc1S(=O)(=O)Nc1cccc(OC(F)(F)F)c1 (stereo not shown) [Example 1.452] | ≤ 200
CCOc1cc(NC(=O)C(CO)C2CCCCC2)ccc1S(=O)(=O)Nc1cccc(OC(F)(F)F)c1 (stereo not shown) [Example 1.113] | ≤ 200
CCOc1cc(NC(=O)[C@H]2CC[C@@H](OC)CC2)ccc1S(=O)(=O)Nc1cccc(OC(F)(F)F)c1 [Example 1.412] | 750 to 2000
CCOc1cc(NC(=O)C(O)C2CCCC2)ccc1S(=O)(=O)Nc1cccc(OC(F)(F)F)c1 (stereo not shown) [Example 1.177] | ≤ 200
Cc1cc(NC(=O)c2cccc(F)c2)ccc1S(=O)(=O)Nc1cccc(C(F)(F)F)c1 [Example 1.380] | 200 to 750
CCOc1cc(NC(=O)[C@@H](CO)c2ccccc2)ccc1S(=O)(=O)Nc1cccc(C(C)(C)O)c1 [Example 1.270] | 2000 to 20000

The remaining lines, values ahead:

IC50 [nM] | SMILES
750 to 2000 | COc1cc(NC(=O)C2=CCCCC2)ccc1S(=O)(=O)Nc1cccc(OC(F)(F)F)c1 [Example 1.090]
200 to 750 | COc1ccc(NS(=O)(=O)c2ccc(NC(=O)c3ccnn3C)cc2OC)cc1C(F)(F)F [Example 1.580]
≤ 200 | CCOc1cc(NC(=O)C(C(=O)O)C(C)C)ccc1S(=O)(=O)Nc1cccc(OC(F)(F)F)c1 (stereo not shown) [Example 1.217]
200 to 750 | COc1cc(NC(=O)c2ccn(C)c(=O)c2)ccc1S(=O)(=O)Nc1cccc(OC(F)(F)F)c1 [Example 1.038]
≤ 200 | COCc1cc(NC(=O)[C@@H](O)C(C)C)ccc1S(=O)(=O)Nc1cccc(OC(F)(F)F)c1 [Example 1.188]
≤ 200 | COc1cc(NC(=O)c2ccnn2C)ccc1S(=O)(=O)Nc1cccc(OC(F)(F)F)c1 [Example 1.239]
≤ 200 | CCOc1cc(NC(=O)[C@@H](NC(=O)C(F)(F)F)C(C)C)ccc1S(=O)(=O)Nc1cccc(OC(F)(F)F)c1 [Example 1.503]
200 to 750 | COc1cc(NC(=O)C(CO)c2ccccc2)ccc1S(=O)(=O)Nc1cccc(C(F)(F)F)c1 (stereo not shown) [Example 1.206]
2000 to 20000 | CCOc1cc(NC(=O)[C@H]2CC=CC[C@@H]2C(=O)O)ccc1S(=O)(=O)Nc1ccc(C)c(OC(F)(F)F)c1 (racemic) [Example 1.167]
200 to 750 | CCOc1cc(NC(=O)[C@H](CO)c2ccccc2)ccc1S(=O)(=O)Nc1cccc(OC(F)(F)F)c1 [Example 1.287]
≤ 200 | CCOc1cc(NC(=O)[C@@H](O)C(C)C)ccc1S(=O)(=O)Nc1cccc(OC(F)(F)F)c1 [Example 1.105]
≤ 200 | CCOc1cc(NC(=O)[C@H](C2CCCC2)[C@@H](C)O)ccc1S(=O)(=O)Nc1cccc(OC(F)(F)F)c1 (racemic) [Example 1.147]
≤ 200 | COc1cc(NC(=O)[C@@H](CO)C(C)C)ccc1S(=O)(=O)Nc1ccc(C)c(OC(F)(F)F)c1 [Example 1.191]
≤ 200 | CCOc1cc(NC(=O)[C@@H](NC(=O)CC)C(C)C)ccc1S(=O)(=O)Nc1cccc(OC(F)(F)F)c1 [Example 1.241]
200 to 750 | COc1cc(NC(=O)c2ccnn2C)ccc1S(=O)(=O)Nc1ccc(OC(F)(F)F)cc1 [Example 1.228]
≤ 200 | CCOc1cc(NC(=O)[C@@H](O)C(C)CC)ccc1S(=O)(=O)Nc1cccc(OC(F)(F)F)c1 (stereo partly shown) [Example 1.492]
750 to 2000 | CCOc1cc(NC(=O)[C@@H](O)C(C)C)ccc1S(=O)(=O)Nc1ccc2c(c1)OC(F)(F)O2 [Example 1.340]
≤ 200 | CCOc1cc(NC(=O)[C@@H](CO)C(C)C)ccc1S(=O)(=O)Nc1ccc(OC)c(C(F)(F)F)c1 [Example 1.005]
750 to 2000 | CCOc1cc(NC(=O)[C@H]2CCCC[C@H]2C(=O)O)ccc1S(=O)(=O)Nc1ccc(C)c(OC(F)(F)F)c1 (racemic) [Example 1.314]
200 to 750 | CCOc1cc(NC(=O)[C@@H](O)C(C)C)ccc1S(=O)(=O)Nc1ccc(F)c(C)c1 [Example 1.440]
200 to 750 | Cc1cc(NC(=O)C(CO)C(C)C)ccc1S(=O)(=O)Nc1cccc(OC(F)(F)F)c1 (stereo not shown) [Example 1.400]
≤ 200 | CCCc1cc(NC(=O)[C@@H](O)C(C)C)ccc1S(=O)(=O)Nc1cccc(OC(F)(F)F)c1 [Example 1.071]
